Molecules are shown by their SMILES.

Experimental findings from patent publication US12478628B2, “Germ cell nuclear factor ligands and methods of use thereof” (Saint Louis University, priority 2020, dated 2025) are described below.

Holding throughout (format): binding
In one assay the target is T1, LRH-1 (NR5A2) LBD (Homo sapiens, UniProt O00482).
T1 construct: human LRH-1 (NR5A2) LBD (residues 291-541); hexahistidine tag with 3C protease site; made in house; host or cells: E. coli BL(21) DE3
Briefly: DSF specificity assay, LRH-1. The protocol: (§1) Protein Expression and Purification. Human GCNF (NR6A1) LBD (residues 248-480) and mutants F284A/F361A, human LRH-1 (NR5A2) LBD (residues 291-541), human RXRα LBD (residues 223-462), human COUP-TF I LBD (residues 184-410) and human SF-1 LBD (residues 219-461) were subcloned in pET45b(+) plasmid (Novagen) were expressed in E. coli BL(21) DE3 cells in terrific broth with 0.1 mg/mL ampicillin as 3C protease-cleavable hexahistidine-tagged fusion proteins. The bacterial culture was grown at 37° C. to an optical density of 0.8 to 1.0 at 600 nm. Protein expression was induced by adding 1 mM IPTG and was allowed to proceed for 14 h at 22° C. […]
(§2) DSF Assay. […] A total of 450 compounds (Life Chemicals) previously selected from a nuclear-receptor-biased library targeting REV-ERB were analyzed. Thermal stability was assessed on a Quantstudio 6 instrument (Biosystems) by ramping the temperature from 25° C. to 95° C. at 0.05° C./s and protein melt shifts were subsequently quantified by Boltzmann-derived melting temperature (Tm) using the Protein Thermal Shift (ThermoFisher) software. […]

The target in another assay is T2, RXRα LBD (Homo sapiens, UniProt P19793).
T2 construct: human RXRα LBD (residues 223-462); hexahistidine tag with 3C protease site; made in house; host or cells: E. coli BL(21) DE3
T2 sequence (P19793 223-462): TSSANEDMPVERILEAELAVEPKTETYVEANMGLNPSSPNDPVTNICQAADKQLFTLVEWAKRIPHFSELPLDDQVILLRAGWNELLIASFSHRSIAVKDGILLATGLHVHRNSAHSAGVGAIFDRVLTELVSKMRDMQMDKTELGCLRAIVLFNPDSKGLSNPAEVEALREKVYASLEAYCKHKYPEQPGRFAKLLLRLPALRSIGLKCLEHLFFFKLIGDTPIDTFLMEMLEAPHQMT
Briefly: DSF specificity assay, RXRα. As to the method:
as §1, §2

The next assay addresses T3, SF-1 (NR5A1) LBD (Homo sapiens, UniProt Q13285).
T3 construct: human SF-1 LBD (residues 219-461); hexahistidine tag with 3C protease site; made in house; host or cells: E. coli BL(21) DE3
The assay can be described thus: DSF specificity assay, SF-1. The protocol:
as §1, §2

The target of the next assay is T4, GCNF LBD (Homo sapiens, UniProt Q15406).
T4 construct: Human GCNF (NR6A1) LBD (residues 248-480); made in house; host or cells: E. coli BL(21) DE3
T4 sequence (Q15406 248-480): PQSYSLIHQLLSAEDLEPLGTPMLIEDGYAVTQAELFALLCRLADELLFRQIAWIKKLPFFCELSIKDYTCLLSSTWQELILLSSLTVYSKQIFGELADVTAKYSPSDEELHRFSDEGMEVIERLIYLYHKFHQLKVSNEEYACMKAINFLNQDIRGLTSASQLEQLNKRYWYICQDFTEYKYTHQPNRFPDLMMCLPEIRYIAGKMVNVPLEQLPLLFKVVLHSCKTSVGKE
Briefly: Differential scanning fluorimetry (DSF) of GCNF LBD. The conditions noted are these: 20 μM ligand; GCNF LBD Tm 41.9±0.6° C.; significance cutoff 2° C.; read-out: increase of melting temperature (ΔTm) of GCNF LBD. As to the method:
DSF Assay. GCNF LBD (5 μM) were mixed with 1× Sypro orange (Invitrogen) in DSF buffer (50 mM HEPES, 50 mM KCl, 5 mM TCEP, 0.5 mM EDTA, pH 7.5). Test compounds was added at 1:1 molar equivalence as protein or replaced with DMSO control. Ten microliters (10 μL)×5 replicates for each sample were plated on 384-well PCR microplate. No protein control and no ligand references were also run simultaneously in 5 replicates on the same plate. A total of 450 compounds (Life Chemicals) previously selected from a nuclear-receptor-biased library targeting REV-ERB were analyzed. Thermal stability was assessed on a Quantstudio 6 instrument (Biosystems) by ramping the temperature from 25° C. to 95° C. at 0.05° C./s and protein melt shifts were subsequently quantified by Boltzmann-derived melting temperature (Tm) using the Protein Thermal Shift (ThermoFisher) software. Positive hits were identified when a thermal shift (ΔTm) of at least 2° C. was observed.
For the DSF ligand titration assay, ligands 30, 34 and 80 were titrated against 5 μM GCNF LBD with a ligand concentration series of 30, 20, 13, 9, 6, 4, 2.6, 1.7 and 0 μM from a 20 mM DMSO stock solution. DSF assay and analysis was then performed as described above. All DSF data were reported as mean±SEM.
(In general: In DSF a fluorescence change marks the thermal transition of the protein.)

T3 sequence (Q13285 219-461): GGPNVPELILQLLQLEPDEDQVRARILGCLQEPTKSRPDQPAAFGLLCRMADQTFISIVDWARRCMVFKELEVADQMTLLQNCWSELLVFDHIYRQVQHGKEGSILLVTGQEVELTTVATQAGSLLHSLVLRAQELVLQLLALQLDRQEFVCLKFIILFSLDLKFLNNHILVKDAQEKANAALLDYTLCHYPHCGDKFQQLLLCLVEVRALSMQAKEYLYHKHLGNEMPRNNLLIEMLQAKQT
T1 sequence (O00482 291-541): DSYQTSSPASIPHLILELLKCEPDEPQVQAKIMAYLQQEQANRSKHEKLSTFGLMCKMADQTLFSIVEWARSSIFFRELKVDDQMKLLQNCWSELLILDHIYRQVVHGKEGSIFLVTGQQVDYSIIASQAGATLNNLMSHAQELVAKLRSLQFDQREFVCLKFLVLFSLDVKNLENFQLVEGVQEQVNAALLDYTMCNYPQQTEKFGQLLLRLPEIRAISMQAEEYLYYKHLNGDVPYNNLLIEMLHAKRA

Take `Cc1ccc(-n2ncc3c(N4CCOCC4)nc(NCc4ccco4)nc32)cc1` [Ligand 34, N-[(furan-2-yl)methyl]-1-(4-methylphenyl)-4-(morpholin-4-yl)-1H-pyrazolo[3,4-d]pyrimidin-6-amine]: at LRH-1 (NR5A2) LBD, the “change of Tm of LRH-1 LBD” value is on record as “did not significantly change”. Further, the “change of Tm of RXRα LBD” value on RXRα LBD is given as “did not significantly change”. Besides, the “change of Tm of SF-1 LBD” value at SF-1 (NR5A1) LBD is “did not significantly change”.

Consider `O=C(Cn1cc(S(=O)(=O)c2ccccc2)c2ccccc21)N1CCc2ccccc21` [Ligand 80, 2-[3-(benzenesulfonyl)-1H-indol-1-yl]-1-(2,3-dihydro-1H-indol-1-yl)ethan-1-one], for which, on GCNF LBD, the ΔTm – broadly, the change in melting temperature against a reference sample – at 20 µM is above 2 °C. The “change of Tm of LRH-1 LBD” value at LRH-1 (NR5A2) LBD is on record as “did not significantly change”. The “change of Tm of RXRα LBD” value on RXRα LBD was “did not significantly change”. Further, the “change of Tm of SF-1 LBD” value at SF-1 (NR5A1) LBD was “did not significantly change”.
